From PubChem BioAssay AID1963856 (Molecular Pharmacology Branch, DTP, NCI, 2024)

System: LG0567-F671-PDC KRAS tumor spheroid viability
Assay: Anticancer human tumor LG0567-F671-PDC patient-derived lung adenocarcinoma cell line growth inhibition [KRAS2]
Conditions: spheroids with HUVEC and MSC; for IC50: curve of first compound; for viability, T/C: stronger effect = lower value; active = viability on the fitted dose curve at most 10% of control; inactive = the rest
How it was run: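 KRAS-mutant tumor cells were grown as spheroids with HUVEC endothelial cells and human MSCs as stroma. Targeted agents were tested alone and with KRAS pathway inhibitors. Doses started at or near clinical Cmax, or 10 microM, descending half-log.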

[1] = second compound 0.1 µM, first compound 0.000316 µM
[2] = second compound 0.1 µM, first compound 0.001 µM
[3] = second compound 0.1 µM, first compound 0.00316 µM
[4] = second compound 0.1 µM, first compound 0.01 µM
[5] = second compound 0.1 µM, first compound 0.0316 µM
[6] = second compound 0.1 µM, first compound 0.1 µM
[7] = second compound 0.316 µM, first compound 0.000316 µM
[8] = second compound 0.316 µM, first compound 0.001 µM
[9] = second compound 0.316 µM, first compound 0.00316 µM
[10] = second compound 0.316 µM, first compound 0.01 µM
[11] = second compound 0.316 µM, first compound 0.0316 µM
[12] = second compound 0.316 µM, first compound 0.1 µM
[13] = second compound 1 µM, first compound 0.000316 µM
[14] = second compound 1 µM, first compound 0.001 µM
[15] = second compound 1 µM, first compound 0.00316 µM
[16] = second compound 1 µM, first compound 0.01 µM
[17] = second compound 1 µM, first compound 0.0316 µM
[18] = second compound 1 µM, first compound 0.1 µM
[19] = second compound 3.16 µM, first compound 0.000316 µM
[20] = second compound 3.16 µM, first compound 0.001 µM
[21] = second compound 3.16 µM, first compound 0.00316 µM
[22] = second compound 3.16 µM, first compound 0.01 µM
[23] = second compound 3.16 µM, first compound 0.0316 µM
[24] = second compound 3.16 µM, first compound 0.1 µM
[25] = second compound 10 µM, first compound 0.000316 µM
[26] = second compound 10 µM, first compound 0.001 µM
[27] = second compound 10 µM, first compound 0.00316 µM
[28] = second compound 10 µM, first compound 0.01 µM
[29] = second compound 10 µM, first compound 0.0316 µM
[30] = second compound 10 µM, first compound 0.1 µM
[31] = second compound 0.1 µM, first compound 0.316 µM
[32] = second compound 0.1 µM, first compound 1 µM
[33] = second compound 0.1 µM, first compound 3.16 µM
[34] = second compound 0.1 µM, first compound 10 µM
[35] = second compound 0.316 µM, first compound 0.316 µM
[36] = second compound 0.316 µM, first compound 1 µM
[37] = second compound 0.316 µM, first compound 3.16 µM
[38] = second compound 0.316 µM, first compound 10 µM
[39] = second compound 1 µM, first compound 0.316 µM
[40] = second compound 1 µM, first compound 1 µM
[41] = second compound 1 µM, first compound 3.16 µM
[42] = second compound 1 µM, first compound 10 µM
[43] = second compound 3.16 µM, first compound 0.316 µM
[44] = second compound 3.16 µM, first compound 1 µM
[45] = second compound 3.16 µM, first compound 3.16 µM
[46] = second compound 3.16 µM, first compound 10 µM
[47] = second compound 10 µM, first compound 0.316 µM
[48] = second compound 10 µM, first compound 1 µM
[49] = second compound 10 µM, first compound 3.16 µM
[50] = second compound 10 µM, first compound 10 µM
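Also: drug exposure lasted seven days after spheroids formed for three days.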
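For viability, T/C in this document: 100% = DMSO vehicle control viability.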

CC(C)n1nc(-c2ccc3oc(N)nc3c2)c2c(N)ncnc21 + CNCc1ccccc1-c1csc(C(C)Nc2nc(C)nc3cc(OC)c(OC)cc23)c1
active: viability, T/C [19] 0.52% | viability, T/C [20] 1.53% | viability, T/C [21] 2.23% | viability, T/C [22] 0.27% | viability, T/C [23] 10.3% | viability, T/C [24] 6% | viability, T/C [25] 1.29% | viability, T/C [26] 0.51% | viability, T/C [27] 0.14% | viability, T/C [28] 1.07% | viability, T/C [29] 10.9% | viability, T/C [30] 0.33%
0.0107 µM: IC50 (second compound 0.316 µM)
0.0057 µM: IC50 (second compound 1 µM)
< 0.000316 µM: IC50 (second compound 3.16 µM) | IC50 (second compound 10 µM)
0.0587 µM: IC50 (second compound 0.1 µM)
inactive: viability, T/C [1] 72.7% | viability, T/C [2] 76.2% | viability, T/C [3] 65.5% | viability, T/C [4] 58.6% | viability, T/C [5] 53.8% | viability, T/C [6] 47.3% | viability, T/C [7] 70.3% | viability, T/C [8] 65.5% | viability, T/C [9] 59% | viability, T/C [10] 49% | viability, T/C [11] 42.6% | viability, T/C [12] 37.4% | viability, T/C [13] 70.8% | viability, T/C [14] 73.6% | viability, T/C [15] 52.5% | viability, T/C [16] 44.5% | viability, T/C [17] 32.1% | viability, T/C [18] 23.2%

CC(=O)Nc1cccc(-n2c(=O)n(C3CC3)c(=O)c3c(Nc4ccc(I)cc4F)n(C)c(=O)c(C)c32)c1 + C=CC(=O)N1CCN(c2nc(=O)n(-c3c(C)ccnc3C(C)C)c3nc(-c4c(O)cccc4F)c(F)cc23)C(C)C1
active: viability, T/C [5] 4.13% | viability, T/C [10] 8.8% | viability, T/C [11] 2.68% | viability, T/C [17] 3.83% | viability, T/C [22] 10.7% | viability, T/C [23] 3.27% | viability, T/C [28] 6.78% | viability, T/C [29] 4.36%
inactive: viability, T/C (second compound 0.1 µM, first compound 0.0001 µM) 26.4% | viability, T/C [1] 25.5% | viability, T/C [2] 26.4% | viability, T/C [3] 27.6% | viability, T/C [4] 12.1% | viability, T/C (second compound 0.316 µM, first compound 0.0001 µM) 24.9% | viability, T/C [7] 24.7% | viability, T/C [8] 28.9% | viability, T/C [9] 14.2% | viability, T/C (second compound 1 µM, first compound 0.0001 µM) 30.5% | viability, T/C [13] 28.2% | viability, T/C [14] 22.8% | viability, T/C [15] 17.7% | viability, T/C [16] 8.78% | viability, T/C (second compound 3.16 µM, first compound 0.0001 µM) 26.7% | viability, T/C [19] 27.7% | viability, T/C [20] 20.1% | viability, T/C [21] 10.5% | viability, T/C (second compound 10 µM, first compound 0.0001 µM) 20.3% | viability, T/C [25] 18.9% | viability, T/C [26] 16.9% | viability, T/C [27] 11.7%
< 0.0001 µM: IC50 (second compound 0.1 µM) | IC50 (second compound 0.316 µM) | IC50 (second compound 1 µM) | IC50 (second compound 3.16 µM) | IC50 (second compound 10 µM)

CCNC(=O)CC1N=C(c2ccc(Cl)cc2)c2cc(OC)ccc2-n2c(C)nnc21 (stereo not drawn)
inactive: viability, T/C (compound 0.0316 µM) 115% [middle of 5 runs] | viability, T/C (compound 0.1 µM) 103% [middle of 5 runs] | viability, T/C (compound 0.316 µM) 80.5% [middle of 5 runs]

COC(=O)c1ccc2c(C(=Nc3ccc(N(C)C(=O)CN4CCN(C)CC4)cc3)c3ccccc3)c(O)[nH]c2c1 + CC1OCC2(CCN(c3cnc(Sc4ccnc(N)c4Cl)c(N)n3)CC2)C1N
> 10 µM: IC50 (second compound 0.1 µM)
< 0.0316 µM: IC50 (second compound 0.316 µM) | IC50 (second compound 1 µM) | IC50 (second compound 3.16 µM) | IC50 (second compound 10 µM)
inactive: viability, T/C [5] 55.5% | viability, T/C [6] 50.5% | viability, T/C [31] 47.3% | viability, T/C [32] 57.5% | viability, T/C [33] 57.8% | viability, T/C [34] 51.8% | viability, T/C [11] 29.1% | viability, T/C [12] 29.2% | viability, T/C [35] 26.4% | viability, T/C [36] 39.5% | viability, T/C [37] 36.3% | viability, T/C [38] 37.3% | viability, T/C [17] 25.5% | viability, T/C [18] 23.4% | viability, T/C [39] 23.6% | viability, T/C [40] 30.6% | viability, T/C [41] 38.2% | viability, T/C [42] 34% | viability, T/C [23] 19.5% | viability, T/C [24] 20.1% | viability, T/C [43] 19% | viability, T/C [44] 24.1% | viability, T/C [45] 32.5% | viability, T/C [46] 27.8% | viability, T/C [29] 13.7% | viability, T/C [30] 13.9% | viability, T/C [47] 13.2% | viability, T/C [48] 19.5% | viability, T/C [49] 23.6% | viability, T/C [50] 26.7%

CC1OCC2(CCN(c3cnc(Sc4ccnc(N)c4Cl)c(N)n3)CC2)C1N (stereo not drawn) + COc1cc2nc(C)nc(NC(C)c3cc(N)cc(C(F)(F)F)c3)c2cc1OC1CCOC1
0.0681 µM: IC50 (second compound 1 µM)
0.0555 µM: IC50 (second compound 0.316 µM)
0.0622 µM: IC50 (second compound 0.1 µM)
0.0562 µM: IC50 (second compound 10 µM)
inactive: viability, T/C [5] 61.9% | viability, T/C [6] 40.3% | viability, T/C [31] 30.6% | viability, T/C [32] 27.5% | viability, T/C [33] 23.1% | viability, T/C [34] 15.3% | viability, T/C [11] 58% | viability, T/C [12] 41.6% | viability, T/C [35] 30.6% | viability, T/C [36] 25.8% | viability, T/C [37] 21.7% | viability, T/C [38] 16% | viability, T/C [17] 61.5% | viability, T/C [18] 43.6% | viability, T/C [39] 32% | viability, T/C [40] 26.3% | viability, T/C [41] 19.2% | viability, T/C [42] 13.5% | viability, T/C [23] 58.1% | viability, T/C [24] 42.3% | viability, T/C [43] 32% | viability, T/C [44] 25.4% | viability, T/C [45] 19.2% | viability, T/C [46] 13.6% | viability, T/C [29] 52.7% | viability, T/C [30] 47.4% | viability, T/C [47] 28.9% | viability, T/C [48] 20.2% | viability, T/C [49] 19.5% | viability, T/C [50] 16%
0.0577 µM: IC50 (second compound 3.16 µM)
